Values of other authors, collected in paper PMC12521730, “Quantitative dual-isotope preclinical SPECT/CT imaging and biodistribution of the mercury-197m/g theranostic pair with [^197m/gHg]HgCl2 and a [^197m/gHg]Hg-tetrathiol complex as a platform for radiopharmaceutical development” (EJNMMI Radiopharmacy and Chemistry, 2025).

How the values were obtained:
[1] = 24 h; ref Randhawa et al. [2023]; cited from earlier work
[2] = design: method as in Randhawa et al. [2023]; details: 72 h; ref Randhawa et al. [2023]; cited from earlier work

In the case of `O=C(CN1CCSCCSCCSCCSCC1)NCc1ccccc1.[Hg+2]` [NS4-BA complex], the “intact complex in human serum” value [1] is listed as 74 ± 7% and the “intact complex when challenged against GSH” value [2] is listed as 92 ± 1%.
